Assays:
[1] = source: EPAR summary for Lyrica; cited from earlier work
[2] = system: patients with newly reported Acute Coronary Syndrome (ACS); assay: Study 5: randomized controlled trial, Ticagrelor with QFM (active group) versus Ticagrelor with e-diary (control group); format: in vivo, human
Source text: The study design was two different patient groups with at least eighty patients in each group. The group using the invention, hereafter called the active group, used their own mobile phones to use the QFM described above and the actual drug Ticagrelor. The other group, hereafter called the control group, used their own mobile phones with just an e-diary (control app) and the actual drug Ticagrelor.
Study design: Randomized Controlled Trial with two different patient groups
Intervention to evaluate: The invention using the above described QFM in the patients mobile phones, integrated with the actual drug
Actual used drug: Ticagrelor (Brilique)
Control: e-diary. The e-diary consisted of the following items and functionalities, enabling data for study evaluation • The questions concerning adherence to the specific drug, being able to answer whether the patient took the drug in the morning and/or in the evening, for the actual day and the day before. • A reminder through a text message if the patient missed to answer the adherence questions during one day
Patient group: Patients with newly reported Acute Coronary Syndrome (ACS).
Number of patients in total: 166
Length of using the invention: Six months
Primary objective: Assess the non-adherence to the drug according to the prescription recommendation in patients using the invention compared to patients who only use the control-app
The primary endpoint definition was according to the following: Composite endpoint of adherence failure- or treatment gap events registered by patients • Adherence failure events; • More than 14% missed doses during an observation cycle of 7 days. The first missed dose of the drug initiates an observation cycle of 1 week. If a second missed dose is registered within this week an adherence failure event is registered. The third missed dose initiates a new observation cycle, and the process restarts. • Treatment gap events; • patient reported gaps of more than 4 consecutive doses
Secondary objectives: Comparison between active group and control group concerning; • Adherence to treatment of the specific drug • Cardiovascular risk factors: • BMI • Physical activity • Blood pressure • LDL-cholesterol • Smoking cessation • Quality of life (EQ5D-VAS)
The patients with ACS was randomly selected to one of the study arms. After inclusion patients in the active group used the described QFM in relation to the actual drug during the actual period of time.

[3] = Active group (QFM + Ticagrelor)
[4] = Control group (e-diary + Ticagrelor)

Row | Compound | Common side-effects which may affect more than 1 person in 100 (among others) [1] | Very common side-effects which may affect more than 1 person in 10 [1] | LDL change [2, 3] | Physical activity improvements [2, 3] | Quality of life (EQ5D-VAS) change [2, 3] | Smoking cessation [2, 3] | LDL change [2, 4] | Physical activity improvements [2, 4] | Quality of life (EQ5D-VAS) change [2, 4] | Smoking cessation [2, 4] | BMI; average decrease in weight ([2]; Patients having a BMI >30, group not stated) | patient deaths during the usage of the invention ([2]; six months)
1 | CC(C)C[C@H](CN)CC(=O)O [A, pregabalin] | dry mouth, nausea | dizziness, tiredness |  |  |  |  |  |  |  |  |  | 
2 | CCCSc1nc(N[C@@H]2C[C@H]2c2ccc(F)c(F)c2)c2nnn([C@@H]3C[C@H](OCCO)[C@@H](O)[C@H]3O)c2n1 [Ticagrelor, ticagrelor] |  |  | −1.8 | 50% | +14.7 | −80% | −1.0 | 32% | +8.4 | −45% | 5% | No patients in the study died

— patent US10624894B2, “Pharmaceutical product and communication tool” (ScientificMed Sweden AB, priority 2011, dated 2020)
